Results: patent US9409917B2, “Heterocyclic amide derivatives as P2X7 receptor antagonists” (ACTELION PHARMACEUTICALS LTD., priority 2012, dated 2016)
Where two headings read alike, the source gives them in different places.

Target: human recombinant P2X7 receptor (Homo sapiens (Human), UniProt Q99572)
Experiment: YO-PRO assay: P2X7 receptor antagonistic activity (ATP-induced YO-PRO-1 uptake, FLIPR)
Details: read-out: IC50 [nM], antagonistic activities with respect to the P2X7 receptor
[1] = HEK-293 cells expressing human recombinant P2X7 receptor, YO-PRO-1 fluorescence, ATP 250 μM, 90 minutes, highest concentration 10 μM

Sequence of human recombinant P2X7 receptor (Q99572 whole entry): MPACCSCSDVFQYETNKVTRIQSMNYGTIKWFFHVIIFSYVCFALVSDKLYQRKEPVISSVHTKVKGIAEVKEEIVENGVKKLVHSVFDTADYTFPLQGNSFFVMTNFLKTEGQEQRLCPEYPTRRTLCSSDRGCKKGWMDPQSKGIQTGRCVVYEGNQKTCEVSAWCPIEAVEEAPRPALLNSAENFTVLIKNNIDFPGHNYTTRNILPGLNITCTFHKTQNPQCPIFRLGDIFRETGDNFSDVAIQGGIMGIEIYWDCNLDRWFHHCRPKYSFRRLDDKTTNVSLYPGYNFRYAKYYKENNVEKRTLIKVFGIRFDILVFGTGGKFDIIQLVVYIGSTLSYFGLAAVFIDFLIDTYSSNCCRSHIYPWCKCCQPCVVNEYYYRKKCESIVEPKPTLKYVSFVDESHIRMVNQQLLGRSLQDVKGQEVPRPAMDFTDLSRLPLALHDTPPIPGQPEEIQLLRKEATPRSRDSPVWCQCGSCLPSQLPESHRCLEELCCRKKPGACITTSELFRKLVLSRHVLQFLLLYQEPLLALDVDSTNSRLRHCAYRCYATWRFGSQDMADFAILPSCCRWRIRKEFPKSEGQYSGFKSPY

Row | Compound | IC50 [1] [nM] | IC50 [nM]
1 | O=C(NC1CC1c1ccccc1)C1COc2ncccc21 (stereo not shown) [Example 64, 2,3-Dihydro-furo[2,3-b]pyridine-3-carboxylic acid (2-phenyl-cyclopropyl)-amide] | 4850 | –
2 | NC(=O)C1CCCCC1NC(=O)C1COc2ncccc21 (stereo not shown) [Example 66, 2,3-Dihydro-furo[2,3-b]pyridine-3-carboxylic acid (2-carbamoyl-cyclohexyl)-amide] | 5880 | –
3 | C[C@@H](NC(=O)C1COc2ncccc21)c1ccc(Cl)cc1Cl (stereo partly drawn) [Example 70, 2,3-Dihydro-furo[2,3-b]pyridine-3-carboxylic acid [(R)-1-(2,4-dichloro-phenyl)-ethyl]-amide] | 110 | –
4 | C[C@@H](NC(=O)C1COc2ncccc21)c1ccc(Cl)cc1Cl (stereo partly drawn) [Example 71, 2,3-Dihydro-furo[2,3-b]pyridine-3-carboxylic acid [(R)-1-(2,4-dichloro-phenyl)-ethyl]-amide] | 36.5 | –
5 | O=C(NCC(c1ccc(C(F)(F)F)cc1)N1CCC(F)(F)CC1)C1COc2ncccc21 (stereo not shown) [Example 78, 2,3-Dihydro-furo[2,3-b]pyridine-3-carboxylic acid [2-(4,4-difluoro-piperidin-1-yl)-2-(4-trifluoromethyl-phenyl)-ethyl]-amide] | 122 | –
6 | O=C(NCC(c1cnc(C(F)(F)F)nc1)N1CCOCC1)C1COc2ncccc21 (stereo not shown) [Example 83, 2,3-Dihydro-furo[2,3-b]pyridine-3-carboxylic acid [2-morpholin-4-yl-2-(2-trifluoromethyl-pyrimidin-5-yl)-ethyl]-amide] | 124 | –
7 | O=C(NCC(c1cnc(C(F)(F)F)nc1)N1CCOCC1)C1COc2ncccc21 (stereo not shown) [Example 84, 2,3-Dihydro-furo[2,3-b]pyridine-3-carboxylic acid [2-morpholin-4-yl-2-(2-trifluoromethyl-pyrimidin-5-yl)-ethyl]-amide] | 20.8 | –
8 | COc1ccc(C(CNC(=O)C2COc3ncccc32)N2CCOCC2)cn1 (stereo not shown) [Example 87, 2,3-Dihydro-furo[2,3-b]pyridine-3-carboxylic acid [2-(6-methoxy-pyridin-3-yl)-2-morpholin-4-yl-ethyl]-amide] | 978 | –
9 | Cc1ccc(C(CNC(=O)C2COc3ncccc32)N2CCOCC2)cn1 (stereo not shown) [Example 90, 2,3-Dihydro-furo[2,3-b]pyridine-3-carboxylic acid [2-(6-methyl-pyridin-3-yl)-2-morpholin-4-yl-ethyl]-amide] | 1150 | –
10 | O=C(NCC(c1cnc(C2CC2)nc1)N1CCOCC1)C1COc2ncccc21 (stereo not shown) [Example 91, 2,3-Dihydro-furo[2,3-b]pyridine-3-carboxylic acid [2-(2-cyclopropyl-pyrimidin-5-yl)-2-morpholin-4-yl-ethyl]-amide] | 215 | –
11 | O=C(NCC(c1ccc(C(F)(F)F)nc1)N1CCOCC1)C1COc2ncccc21 (stereo not shown) [Example 92, 2,3-Dihydro-furo[2,3-b]pyridine-3-carboxylic acid [2-morpholin-4-yl-2-(6-trifluoromethyl-pyridin-3-yl)-ethyl]-amide] | 82.2 | –
12 | O=C(N[C@@H]1CCCc2ccccc21)C1COc2ncccc21 (stereo partly drawn) [Example 107, 2,3-dihydrofuro[2,3-b]pyridine-3-carboxylic acid ((R)-1,2,3,4-tetrahydronaphthalen-1-yl)-amide] | 1220 | –
13 | O=C(N[C@@H]1CCCc2ccccc21)C1COc2ncccc21 (stereo partly drawn) [Example 108, 2,3-dihydrofuro[2,3-b]pyridine-3-carboxylic acid ((R)-1,2,3,4-tetrahydronaphthalen-1-yl)-amide] | 191 | –
14 | O=C(N[C@@H]1CCCc2cccc(Cl)c21)C1COc2ncccc21 (stereo partly drawn) [Example 111, 2,3-Dihydro-furo[2,3-b]pyridine-3-carboxylic acid ((R)-8-chloro-1,2,3,4-tetrahydro-naphthalen-1-yl)-amide] | 221 | –
15 | O=C(N[C@@H]1CCCc2cccc(Cl)c21)C1COc2ncccc21 (stereo partly drawn) [Example 112, 2,3-Dihydro-furo[2,3-b]pyridine-3-carboxylic acid ((R)-8-chloro-1,2,3,4-tetrahydro-naphthalen-1-yl)-amide] | 9.5 | –
16 | O=C(NC1CCc2cccc(Br)c21)C1COc2ncccc21 (stereo not shown) [Example 113, 2,3-Dihydro-furo[2,3-b]pyridine-3-carboxylic acid (7-bromo-indan-1-yl)-amide] | 35.9 | –
17 | O=C1c2c(Cl)cc(Cl)cc2CC1NC(=O)C1COc2ncccc21 (stereo not shown) [Example 116, 2,3-Dihydro-furo[2,3-b]pyridine-3-carboxylic acid (5,7-dichloro-1-oxo-indan-2-yl)-amide] | 9010 | –
18 | (S)-2,3-Dihydro-furo[2,3-b]pyridine-3-carboxylic acid ((1S,2R)-2-hydroxy-indan-1-yl)-amide and (R)-2,3-Dihydro-furo[2,3-b]pyridine-3-carboxylic acid ((1S,2R)-2-hydroxy-indan-1-yl)-amide [Example 65] | 3400 | –
19 | (S)-2,3-Dihydro-furo[2,3-b]pyridine-3-carboxylic acid (R)-indan-1-ylamide and (R)-2,3-Dihydro-furo[2,3-b]pyridine-3-carboxylic acid (R)-indan-1-ylamide [Example 69] | – | 400
